The results in this text go back to patent US9951039B2, “Pyrimidines for treatment of bacterial infections” (The Hong Kong Polytechnic University, priority 2016, dated 2018).

≈ marks a conversion by molar mass, not a printed value.

Broadly, the MIC is the lowest concentration that inhibits growth of the organism. A higher MIC goes with a less susceptible organism.

Assay [1] deals with S. aureus ATCC BAA-41 (methicillin resistant). The assay can be described thus: MIC against clinically isolated strain 4. It counts as cell-based. Particulars: Staphylococcus aureus, ATCCBAA41. The protocol: Procedure of Antimicrobial susceptibility test: The MIC value of compounds was measured in the antimicrobial susceptibility test using the broth microdilution procedure in accordance with the CLSI guidelines.^21 Cation-adjusted Mueller Hinton broth (CA-MHB) was used for all the S. aureus strains in the assay. Cells in exponential phase of growth were diluted to approximately 5×10^5 cfu/mL. Stock solutions of each compound were freshly dissolved in dimethyl sulfoxide (DMSO). Then, serial dilutions of each compound in CA-MHB medium were added into 96-well microplate. The final percentage of DMSO in the assay was 1%. Control experiments were performed with 1% DMSO instead of the compound solution. After being incubated at 37° C. for 18 h, OD600 value of cells was measured on a microplate reader and the percentage of bacterial cell inhibition with respect to controls was calculated. The MIC value was defined as the lowest compound concentration at which the growth of bacteria was inhibited by ≥90%. Three independent assays were performed for each compound.
Results: Three compounds, namely 14av_amine16, 14dv_amine16 and 14dv_amine06, were selected to be tested against nine in-house clinically isolated bacterial strains including S. aureus ATCC29247, which is an ampicillin resistant strain, S. aureus ATCC BAA-41, ATCC BAA-1717, ATCC BAA-1720, ATCC 43300 which are methicillin resistant strains and four USA300 strains, (#417, #757, #1799 and #2690), which are the predominant strain type of community-associated MRSA strains in the United States.

Assay [2] deals with T1, S. aureus FtsZ (Staphylococcus aureus, UniProt P0A031).
T1 construct: 6-histidine tag; made in house; host or cells: E. coli BL21(DE3)
T1 sequence (P0A031 1-390): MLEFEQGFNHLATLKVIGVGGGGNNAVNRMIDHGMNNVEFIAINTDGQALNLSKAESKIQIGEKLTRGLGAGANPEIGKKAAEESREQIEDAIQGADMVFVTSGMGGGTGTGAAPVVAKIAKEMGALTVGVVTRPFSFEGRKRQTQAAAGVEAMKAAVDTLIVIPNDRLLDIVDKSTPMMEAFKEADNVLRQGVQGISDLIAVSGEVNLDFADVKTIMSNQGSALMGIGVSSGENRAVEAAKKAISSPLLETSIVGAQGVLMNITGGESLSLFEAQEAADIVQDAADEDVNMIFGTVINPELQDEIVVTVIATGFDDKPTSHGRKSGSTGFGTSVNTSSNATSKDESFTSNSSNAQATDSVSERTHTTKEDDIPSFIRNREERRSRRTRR
The assay can be described thus: Saturation Transfer Difference (STD) NMR study. It counts as binding. Particulars: 298K, line broadening and STD effect. The protocol: (§1) Procedure for expression and purification of S. aureus FtsZ protein: S. aureus FtsZ protein was prepared as previous reported.^16a In brief, E. coli BL21(DE3) cells, transformed with a pRSET-A-S vector carrying S. aureus FtsZ with a 6-histidine tag attached, were streaked on a nutrient agar plate containing 50 μg/mL ampicillin. After overnight incubation at 37° C., a single colony was inoculated into 5 mL of Luria-Bertani (LB) medium in the presence of 50 μg/mL ampicillin, which was then incubated at 37° C., with shaking at 250 rpm for 16 h. […]
Procedure STD NMR study: STD NMR experiments were performed on a Bruker Avance III 600 NMR spectrometer equipped with a QCI cryoprobe at 298K. Spectra were recorded with a carrier set at 0.5 ppm for on-resonance irradiation and 30 ppm for off-resonance irradiation. Control spectra were recorded under identical conditions without compound to test for artifacts. Selective protein saturation was accomplished using a train of 40 Gauss-shaped pulses (50 ms with 1 ms delay between pulses) for a total saturation time of 2 s at an experimentally determined optimal power (7.7625 W on the probe); a T1p spinlock filter (20-50 ms) was incorporated to suppress protein resonances. STD spectra were recorded using a minimum of 128 scans and 32 k points covering a spectral width of 6600 Hz. […]

The target of assay [3] is T1, S. aureus FtsZ. The assay can be described thus: FtsZ polymerization light scattering assay. Format: biochemical. Particulars: 30 μm of compound; FtsZ 12.5 μM, 1 mM GTP. The method, then: as §1, with “h. The overnight culture was transferred into a fresh 2×TY medium in a dilution ratio of 1:100 and 50 μg/mL ampicillin was then added, followed by incubation at 37° C. with shaking at 250 rpm. When OD600 reached 0.8, protein expression was induced with 0.4 mM isopropyl-β-D-thiogalactopyranoside (IPTG) for 4 h.” for “h.”
Procedure: The polymerization of recombinant S. aureus FtsZ was measured using a 90° light scattering in a thermostatically (37° C.) controlled Fluorescence Spectrometer LS 50B according to previous reports.^16a,19 Both excitation and emission wavelengths were fixed to 600 nm with a slit width of 2.5 nm. […] After 8 min, the final concentration of 1 mM GTP was added at the last fraction and the increase in light scattering measured for an additional 2000 seconds. The rate and extent of polymerization were measured. […]

`CCC(CC)c1cc(CCN2CCCN(Cc3ccc(C(F)(F)F)cc3)CC2)nc(-c2ccncc2)n1` [Compound 14av_amine16, 1-(2-(6-(pentan-3-yl)-2-(pyridin-4-yl)pyrimidin-4-yl)ethyl)-4-(4-(trifluoromethyl)benzyl)-1,4-diazepane] came in with an MIC in assay [1] of 12 µM (≈ 6.14 µg/mL). For the same compound, the “binding to FtsZ protein by STD NMR” value in assay [2] is listed as “indeed bind to FtsZ protein”. Besides, the “inhibition of FtsZ polymerization” value in assay [3] is recorded as “Complete inhibition”.
